Like-named read-outs stand apart in the source and are kept apart here.
How the values were obtained:
[1] = test system: morning glory (variety: murasaki); test: Activity in increasing flower budding of morning glory (spray, dark treatment, flower buds counted on the 14th day); type: in vivo
Procedure: Seeds of morning glory (variety: murasaki) (9 g) were subjected to concentrated sulfuric acid treatment for 20 minutes, and then allowed to stand under water flow overnight.
Subsequently, the seeds were placed on wet sea sand such that the emerging sites of the roots were directed upward for 24 hours, to thereby produce roots. The seeds having roots were planted in sea sand at a position 1 cm below the surface of the sand, and then cultured under continuous light irradiation (for about five days).
The entire plant bodies of the morning glory having leaves produced through this culture were transferred into a culture solution KNO3(250 mg), NH4NO3 (250 mg), KH2PO4 (250 mg), MgSO4.7H2O (250 mg), MnSO4.4H2O (1 mg), Fe-citrate n-hydrate (6 mg), H3BO3 (2 mg), CuSO4.5H2O (0.1 mg), ZeSO4.7H2O (0.2 mg), Na2MoO4.2H2O (0.2 mg), Ca(H2PO4)2.2H2O (250 mg) in distilled water (1,000 mL)].
Water or a 0.01, 0.1, 1 or 100 μM specific α-ketol fatty acid (1A) aqueous solution was sprayed to the cultured system in an amount of 0.1 mL/plant, then the plants were treated by darkness (for 13.5 hours).
Thereafter, the morning glory was grown under continuous light irradiation at 25° C. for 14 days, and on the 14th day the number of the flower buds was measured.
The results of eight specimens of morning glory were averaged.

[2] = Evaluation of stability: decomposition over time of the diluted aqueous solution, analyzed by HPLC; type: physicochemical; conditions: 16 mM ethanol solution diluted by water 30-fold, extended standing, HPLC (FIG. 3)
Procedure: The stability of the specific α-ketol fatty acid derivative (1A) was evaluated as follows. A 16 mM ethanol solution of the derivative (1A) was diluted by water 30-fold. This diluted solution was allowed to stand for an extended period at each of the temperatures of 4° C., 25° C. and 50° C. The extent of decomposition over time was analyzed by HPLC (column: CAPCELL PAK C-18 UG120, 4.6×250 mm, solvent: 50% acetonitrile+0.1% trifluoroacetic acid, flow rate: 1 ml/min, wavelength: 210 nm). For comparison, a solution prepared by similarly diluting the specific α-ketol fatty acid derivative (2A) was allowed to stand for an extended period at each of 25° C. and 50° C. The extent of decomposition was similarly investigated.

[3] = test system: morning glory (variety: murasaki); conditions: from Japanese Patent Publication (A) No. 11-29410; cited from earlier work

stability at 4° C. compared with 25° C. and 50° C. ([2]; 4° C.) | stability compared with (2A) ([2]; 25° C.) | stability compared with (2A) ([2]; 50° C.) | SMILES | optimum concentration relative to the optimum concentration of (2A) ([1]; 1 μM versus 100 μM) | number of flower buds formed, increase ([1]; 0.01-100 μM aqueous solution sprayed 0.1 mL/plant, darkness 13.5 hours, counted on 14th day, average of eight specimens, water 1.25 buds/plant (FIG. 2)) [%] | optimum concentration for flower bud formation ([1]; morning glory, sprayed aqueous solution, FIG. 2) [µM] | optimum concentration for flower bud formation [3] [µM]
far superior in stability | superior in stability | superior in stability | CCC(O)C(O)C/C=C\CC(=O)C(O)CCCCCCCC(=O)O (stereo not shown) [compound (1A), 9,15,16-trihydroxy-10-oxo-12(Z)-octadecenoic acid] | 1/100 | ≥ 200 | 1 | –
– | – | – | CC/C=C\C/C=C\CC(=O)C(O)CCCCCCCC(=O)O (stereo not shown) [compound (2A), 9-hydroxy-10-oxo-12(Z),15(Z)-octadecadienoic acid] | – | – | – | 100
